Source: article PMC11411704, “Gatekeeping Activity of Collinear Ketosynthase Domains Limits Product Diversity for Engineered Type I Polyketide Synthases” (Biochemistry, 2024)

How the values were obtained:
FabD = molecular target: T1, FabD (Escherichia coli, UniProt P0AAI9); test: carrier protein acylation under triketide pyrone production conditions; type: biochemical; conditions: acceptor: PKS carrier protein domains
T1 sequence (P0AAI9 2-309): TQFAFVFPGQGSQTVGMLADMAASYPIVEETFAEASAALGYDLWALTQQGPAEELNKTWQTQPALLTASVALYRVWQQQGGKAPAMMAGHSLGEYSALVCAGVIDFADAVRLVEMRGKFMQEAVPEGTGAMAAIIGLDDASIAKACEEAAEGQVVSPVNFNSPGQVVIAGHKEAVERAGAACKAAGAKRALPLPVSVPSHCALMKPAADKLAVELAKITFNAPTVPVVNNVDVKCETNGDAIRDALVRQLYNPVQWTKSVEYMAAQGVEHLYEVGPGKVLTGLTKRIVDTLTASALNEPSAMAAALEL

[1] = molecular target: T2, Plt module-1 (P1 PKS module-1) (Pseudomonas fluorescens, UniProt O51827); test: diketide formation, extender unit competition assay; type: biochemical; conditions: 4,5-dichloropyrrolyl-SNAC as ketide substrate; equimolar Mal-CoA and MeMal-CoA made with MatB; product diketide 6
T2 construct: gene pltB; module-1 only (KS-AT-CP) of the pyoluteorin PKS, wild-type AT; DEBS interdomain linkers used in the bimodular system; recombinant, purified; borders only in supplement
T2 sequence (O51827 1-1030 limits assumed): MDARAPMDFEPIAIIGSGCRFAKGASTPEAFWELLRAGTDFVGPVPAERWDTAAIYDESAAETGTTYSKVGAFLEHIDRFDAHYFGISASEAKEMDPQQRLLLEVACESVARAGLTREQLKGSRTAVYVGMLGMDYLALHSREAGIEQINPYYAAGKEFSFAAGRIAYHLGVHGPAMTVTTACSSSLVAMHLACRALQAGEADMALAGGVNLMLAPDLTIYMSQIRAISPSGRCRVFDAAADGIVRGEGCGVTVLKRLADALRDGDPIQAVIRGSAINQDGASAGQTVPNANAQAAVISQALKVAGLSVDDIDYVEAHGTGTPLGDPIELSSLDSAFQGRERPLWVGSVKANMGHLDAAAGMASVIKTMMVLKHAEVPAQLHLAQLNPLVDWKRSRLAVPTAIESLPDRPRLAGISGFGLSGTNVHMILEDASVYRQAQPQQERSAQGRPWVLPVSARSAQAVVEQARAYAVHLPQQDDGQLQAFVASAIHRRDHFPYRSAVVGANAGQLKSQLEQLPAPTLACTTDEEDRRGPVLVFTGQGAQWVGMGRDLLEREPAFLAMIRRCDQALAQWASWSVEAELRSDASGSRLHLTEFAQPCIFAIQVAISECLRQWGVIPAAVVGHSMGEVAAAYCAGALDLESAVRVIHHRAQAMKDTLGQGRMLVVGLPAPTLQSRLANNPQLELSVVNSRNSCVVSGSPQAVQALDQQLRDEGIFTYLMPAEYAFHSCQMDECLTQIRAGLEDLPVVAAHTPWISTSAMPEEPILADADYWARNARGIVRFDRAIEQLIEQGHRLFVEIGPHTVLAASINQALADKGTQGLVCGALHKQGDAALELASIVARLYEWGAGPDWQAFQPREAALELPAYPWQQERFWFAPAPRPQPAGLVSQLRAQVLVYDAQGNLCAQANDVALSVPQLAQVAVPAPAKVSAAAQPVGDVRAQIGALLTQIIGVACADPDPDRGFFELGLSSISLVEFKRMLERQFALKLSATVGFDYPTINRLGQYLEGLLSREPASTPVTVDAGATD

For `CCC(C(=O)O)C(=O)SCCNC(=O)CCNC(=O)[C@H](O)C(C)(C)COP(=O)(O)OP(=O)(O)OC[C@H]1O[C@@H](n2cnc3c(N)ncnc32)[C@H](O)[C@@H]1OP(=O)(O)O` (stereo partly drawn) [EtMal-CoA], the “carrier protein acylation under triketide pyrone production conditions” value (FabD) was “FabD was also proficient in incorporating EtMal and PgMal extender units”.
In the case of `C#CCC(C(=O)O)C(=O)SCCNC(=O)CCNC(=O)[C@H](O)C(C)(C)COP(=O)(O)OP(=O)(O)OC[C@H]1O[C@@H](n2cnc3c(N)ncnc32)[C@H](O)[C@@H]1OP(=O)(O)O` (stereo partly drawn) [PgMal-CoA], the “carrier protein acylation under triketide pyrone production conditions” value (FabD) is reported as “FabD was also proficient in incorporating EtMal and PgMal extender units”.
For `CC(C(=O)O)C(=O)SCCNC(=O)CCNC(=O)[C@H](O)C(C)(C)COP(=O)(O)OP(=O)(O)OC[C@H]1O[C@@H](n2cnc3c(N)ncnc32)[C@H](O)[C@@H]1OP(=O)(O)O` (stereo partly drawn) [MeMal-CoA], the “diketide formation, extender unit competition assay” value [1] was “the Plt module-1 KS could efficiently use the MeMal extender unit for diketide production”.
